Where a name gives a salt, the structure may show the parent alone.
Key:
[1] = stability (degradation test) in acidified plasma; format: in vitro ADME, rat; conditions: for Sample Peak Average: rat, 5 μmol/ml
Procedure: • a: Compound 5 prepared in Example 5 was dissolved in purified water to prepare solution A with a concentration of 10 mg/ml; 150 μl of solution A was added to 660 μl of pre-warmed plasma (37° C.), and the pH was adjusted with 0.1% acetic acid to dissolve the sample clear to obtain solution B; • b: Solution B (5 μmol/ml) was stirred in a water bath at 37° C. for a certain period of time (1 min, 2 min, 4 min, 8 min, 16 min, 30 min, 1 h, 2 h, 4 h) and 50 μl was sampled at each time point; • c: 50 μl of the sampled solution was added to 950 μl methanol (0.1% AcH) to precipitate plasma proteins, resulting in mixture C. • d: The mixture C was vortexed for 1 s, centrifuged at 12000 r for 3 min, and the supernatant was taken for testing.
(§1) Liquid phase detection: take 10 μl of the supernatant after the above centrifugation into a sample for measurement.

[2] = stability (degradation test) in fresh rat plasma; format: in vitro ADME; conditions: for Sample Peak Average: rat, 5 μmol/ml
Procedure: Experimental sample: compound 5 prepared in Example 5; 5% glucose (Xi′an Jingxi Shuanghe Pharmaceutical Co., Ltd.); rat plasma (source: Animal Center, Department of Medicine, Xi′an Jiaotong University) Fresh plasma sample preparation: • a: Compound 5 prepared in Example 5 was dissolved in purified water to prepare solution A with a concentration of 10 mg/ml; 150 μl of solution A was added to 660 μl of preheated plasma (37° C.) to obtain solution B; • b: Solution B (5 μmol/ml) was stirred in a 37° C. water bath for a certain period of time (1 min, 2 min, 4 min, 8 min, 16 min, 30 min, 1 h, 2 h, 4 h) and 50 μl was sampled at each time point; • c: 50 μl of sampled solution) was added to 950 μl of methanol (0.1% AcH) to precipitate plasma proteins, resulting in mixture C; • d: The mixture C was vortexed for 1 s, centrifuged at 12000 r for 3 min, and the supernatant was taken for testing.
as §1

In the case of `CC(C)c1cccc(C(C)C)c1OC(=O)CC1(CN(C)C)CCCCC1` [Compound 5, 2,6-diisopropylphenyl 2-(1-((dimethylamino)methyl)cyclohexyl)acetate hydrochloride], the “degradation / stability in acidified plasma” value ([1]; plasma acidified with 0.1% acetic acid, 37° C., up to 2 h) is reported as “not significantly degraded”, the “Sample Peak Average” value ([1]; 1 min) is reported as 196752060 and the “Sample Peak Average” value ([1]; 2 min) is reported as 189140125. For the same compound, the “Sample Peak Average” value ([1]; 4 min) was 184526452, the “Sample Peak Average” value ([1]; 8 min) was 182379068 and the “Sample Peak Average” value ([1]; 16 min) was 176475001. For the same compound, the “Sample Peak Average” value ([1]; 30 min) was 179508039, the “Sample Peak Average” value ([1]; 1 h) was 175087504 and the “Sample Peak Average” value ([1]; 2 h) was 171193983. The “degradation / stability in fresh plasma” value ([2]; fresh rat plasma, 37° C., up to 4 h) was “not significantly degraded”, the “Sample Peak Average” value ([2]; 1 min) was 203062103 and the “Sample Peak Average” value ([2]; 2 min) was 181706084. For the same compound, the “Sample Peak Average” value ([2]; 4 min) was 161303805, the “Sample Peak Average” value ([2]; 8 min) was 178769005 and the “Sample Peak Average” value ([2]; 16 min) was 189298224. For the same compound, the “Sample Peak Average” value ([2]; 1 h) was 230407155, the “Sample Peak Average” value ([2]; 2 h) was 260803581 and the “Sample Peak Average” value ([2]; 4 h) was 246523592.
